Laboratory results: patent publication US20090297656A1, “Liquid Formulation Based On a Guanidinoacetic Acid Component” (priority 2005, published 2009)
Where two headings read alike, the source gives them in different places.

Columns and labels:
[1] = Storage stability in aqueous solution at pH 3.5 and room temperature; format: physicochemical; settings: pH 3.5, room temperature
Description: The rate of breakdown is dependent on the pH of the solution and temperature, with the concentration not playing a role. Particularly in the acid pH region, this breakdown to creatinine proceeds very rapidly. At room temperature and pH 3.5, creatine is already more than 20% converted to creatinine after 3 days and the physiological effect is lost. A pH of 3.5 is a typical pH for, for example, a soft drink. Owing to the rapid breakdown of creatine in this environment, the use of creatine, in particular creatine monohydrate, in aqueous or moist formulations for human and animal nutrition is virtually excluded. Even the pH in the stomach of 1 to 2 can, depending on the residence time, lead to significant breakdown of creatine to form creatinine.
According to FIG. 1, the storage stability of creatine was determined in comparison with a mixture of 4 parts by weight of guanidinoacetic acid and 6 parts by weight of betaine in aqueous solution at pH 3.5 and room temperature: whereas creatine, after 3 days, is already more than 20% converted to creatinine, in the mixture of guanidinoacetic acid and betaine under identical conditions, after 90 days, 95% of the initial amount was still detectable as guanidinoacetic acid.

[2] = cited from earlier work
[3] = Solubility in water; format: physicochemical; settings: room temperature
Description: In comparison with creatine, guanidinoacetic acid has a lower solubility in water (3.8 g per liter at room temperature). […] Therefore, for example, even in half a liter of an aqueous drink, a physiologically meaningful daily dose of the guanidinoacetic acid component can be incorporated without problem.

[4] = Stability under pasteurization or sterilization of aqueous preparations; format: physicochemical; settings: in contrast to creatine
Description: In the production process, aqueous preparations, such as those according to the invention, also, are generally pasteurized or sterilized. […] These advantages were unexpected in this manner in their totality.

[5] = system: Staphyllococcus aureus; settings: animal experiments; cited from earlier work
[6] = 0.032% guanidinoacetic acid in hens' feed
[7] = chickens, less than 0.1% guanidinoacetic acid in the feed

CN(CC(=O)O)C(=N)N [creatine, reference compound]
converted to creatinine ([1]; after 3 days): more than 20%
weight gain ([2]; chickens, 0.2% creatine in the feed): 4%

C[N+](C)(C)CC(=O)O [Betaine, betaine]
stability under the stated conditions [1]: completely stable

N=C(N)NCC(=O)O [guanidinoacetic acid]
solubility in water [3]: 3.8 g per liter
stability under pasteurization/sterilization conditions [4]: outstanding stability
improved feed utilization [2, 6]: 3%
weight gain [2, 6]: 3%
lower feed consumption compared with the control group [2, 7]: 6%
weight gain compared with the control group [2, 7]: 7%
use against bacterial infections [5]: successfully used
